Columns and labels:
[1] = target: SMARCA2 (Homo sapiens, UniProt P51531); assay: HiBiT assay for protein degradation, Hela SMARCA2-HiBiT cells (A series); format: cell-based; set-up: Hela cells were genetically modified via CRISPR/Cas9 to fuse HiBiT to the carboxy terminus of SMARCA2; host or cells: HeLa (CRISPR/Cas9 HiBiT knock-in); conditions: Hela SMARCA2-HiBiT cells, 24 hours treatment; for DC50: read-out: SMARC A2 Hela HiBit DC50; for Dmax: read-out: SMARC A2 Hela HiBit Dmax (%);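 for SMARC A2 Hela HiBit Dmax (%): 24 h compound treatment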
Summary of the method: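 HeLa cells engineered by CRISPR/Cas9 to carry a HiBiT tag fused to the C-terminus of SMARCA2 (Promega CS302365) were grown in DMEM supplemented with FBS and penicillin-streptomycin. After treatment, remaining SMARCA2 protein was quantified with the Nano-Glo® HiBiT Lytic Detection Assay (Promega N3050), and curves were fitted in GraphPad Prism.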

[2] = target: SMARCA4 (Homo sapiens, UniProt P51532); assay: HiBiT assay for protein degradation, Hela SMARCA4-HiBiT cells (A series); format: cell-based; set-up: fuse HiBiT to the carboxy terminus of SMARCA2 (Promega CS302365) or SMARCA4 (Promega CS3023225); host or cells: HeLa (CRISPR/Cas9 HiBiT knock-in); conditions: Hela SMARCA4-HiBiT cells, 24 hours treatment; for DC50: read-out: SMARC A4 Hela HiBit DC50; for Dmax: read-out: SMARC A4 Hela HiBit Dmax
Summary of the method: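 HeLa cells engineered by CRISPR/Cas9 to carry a HiBiT tag fused to the C-terminus of SMARCA4 (Promega CS3023225) were grown in DMEM supplemented with FBS and penicillin-streptomycin. After compound exposure, remaining SMARCA4 protein was quantified using the Nano-Glo® HiBiT Lytic Detection Assay (Promega N3050), and curves were fitted in GraphPad Prism.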

Sequence of SMARCA4 (P51532 whole entry, the tested form may be a part): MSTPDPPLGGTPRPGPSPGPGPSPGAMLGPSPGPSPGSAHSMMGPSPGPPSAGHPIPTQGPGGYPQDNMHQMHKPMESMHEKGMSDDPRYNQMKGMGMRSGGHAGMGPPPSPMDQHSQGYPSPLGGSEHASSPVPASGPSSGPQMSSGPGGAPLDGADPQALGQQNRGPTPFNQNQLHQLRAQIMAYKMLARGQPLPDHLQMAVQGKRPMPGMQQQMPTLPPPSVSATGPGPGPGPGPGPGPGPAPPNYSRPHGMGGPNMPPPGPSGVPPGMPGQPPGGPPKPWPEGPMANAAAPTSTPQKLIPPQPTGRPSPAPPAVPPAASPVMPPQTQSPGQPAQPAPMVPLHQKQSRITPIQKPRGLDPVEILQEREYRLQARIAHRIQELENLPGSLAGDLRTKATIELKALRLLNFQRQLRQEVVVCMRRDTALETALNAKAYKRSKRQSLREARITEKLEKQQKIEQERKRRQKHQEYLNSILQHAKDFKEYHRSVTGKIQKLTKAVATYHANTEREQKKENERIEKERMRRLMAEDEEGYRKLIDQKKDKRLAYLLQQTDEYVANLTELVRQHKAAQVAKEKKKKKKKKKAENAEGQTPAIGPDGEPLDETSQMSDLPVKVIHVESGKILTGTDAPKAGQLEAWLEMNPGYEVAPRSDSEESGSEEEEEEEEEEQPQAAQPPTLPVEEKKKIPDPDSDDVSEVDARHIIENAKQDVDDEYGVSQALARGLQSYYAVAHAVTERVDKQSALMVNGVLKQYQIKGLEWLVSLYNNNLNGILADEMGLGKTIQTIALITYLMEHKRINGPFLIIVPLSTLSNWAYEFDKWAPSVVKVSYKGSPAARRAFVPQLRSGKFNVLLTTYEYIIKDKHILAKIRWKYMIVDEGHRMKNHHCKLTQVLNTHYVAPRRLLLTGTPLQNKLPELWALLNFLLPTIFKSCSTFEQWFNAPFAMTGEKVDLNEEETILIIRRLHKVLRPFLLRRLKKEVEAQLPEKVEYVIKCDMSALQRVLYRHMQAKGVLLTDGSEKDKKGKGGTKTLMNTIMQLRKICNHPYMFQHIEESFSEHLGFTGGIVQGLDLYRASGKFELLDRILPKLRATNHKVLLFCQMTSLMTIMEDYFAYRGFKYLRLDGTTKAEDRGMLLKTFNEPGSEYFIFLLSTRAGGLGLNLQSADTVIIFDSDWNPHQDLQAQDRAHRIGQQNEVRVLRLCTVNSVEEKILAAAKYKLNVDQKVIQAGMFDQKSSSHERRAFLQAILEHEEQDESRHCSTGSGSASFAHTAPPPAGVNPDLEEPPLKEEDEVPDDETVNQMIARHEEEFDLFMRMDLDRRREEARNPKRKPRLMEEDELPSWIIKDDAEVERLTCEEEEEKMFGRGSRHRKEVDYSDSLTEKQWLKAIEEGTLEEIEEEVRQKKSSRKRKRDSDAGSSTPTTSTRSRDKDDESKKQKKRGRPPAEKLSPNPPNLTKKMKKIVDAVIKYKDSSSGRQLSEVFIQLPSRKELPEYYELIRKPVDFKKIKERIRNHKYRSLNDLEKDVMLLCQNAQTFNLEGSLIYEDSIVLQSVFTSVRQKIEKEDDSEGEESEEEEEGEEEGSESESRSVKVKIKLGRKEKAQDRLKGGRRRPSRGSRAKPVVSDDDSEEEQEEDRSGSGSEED
Sequence of SMARCA2 (P51531 whole entry, the tested form may be a part): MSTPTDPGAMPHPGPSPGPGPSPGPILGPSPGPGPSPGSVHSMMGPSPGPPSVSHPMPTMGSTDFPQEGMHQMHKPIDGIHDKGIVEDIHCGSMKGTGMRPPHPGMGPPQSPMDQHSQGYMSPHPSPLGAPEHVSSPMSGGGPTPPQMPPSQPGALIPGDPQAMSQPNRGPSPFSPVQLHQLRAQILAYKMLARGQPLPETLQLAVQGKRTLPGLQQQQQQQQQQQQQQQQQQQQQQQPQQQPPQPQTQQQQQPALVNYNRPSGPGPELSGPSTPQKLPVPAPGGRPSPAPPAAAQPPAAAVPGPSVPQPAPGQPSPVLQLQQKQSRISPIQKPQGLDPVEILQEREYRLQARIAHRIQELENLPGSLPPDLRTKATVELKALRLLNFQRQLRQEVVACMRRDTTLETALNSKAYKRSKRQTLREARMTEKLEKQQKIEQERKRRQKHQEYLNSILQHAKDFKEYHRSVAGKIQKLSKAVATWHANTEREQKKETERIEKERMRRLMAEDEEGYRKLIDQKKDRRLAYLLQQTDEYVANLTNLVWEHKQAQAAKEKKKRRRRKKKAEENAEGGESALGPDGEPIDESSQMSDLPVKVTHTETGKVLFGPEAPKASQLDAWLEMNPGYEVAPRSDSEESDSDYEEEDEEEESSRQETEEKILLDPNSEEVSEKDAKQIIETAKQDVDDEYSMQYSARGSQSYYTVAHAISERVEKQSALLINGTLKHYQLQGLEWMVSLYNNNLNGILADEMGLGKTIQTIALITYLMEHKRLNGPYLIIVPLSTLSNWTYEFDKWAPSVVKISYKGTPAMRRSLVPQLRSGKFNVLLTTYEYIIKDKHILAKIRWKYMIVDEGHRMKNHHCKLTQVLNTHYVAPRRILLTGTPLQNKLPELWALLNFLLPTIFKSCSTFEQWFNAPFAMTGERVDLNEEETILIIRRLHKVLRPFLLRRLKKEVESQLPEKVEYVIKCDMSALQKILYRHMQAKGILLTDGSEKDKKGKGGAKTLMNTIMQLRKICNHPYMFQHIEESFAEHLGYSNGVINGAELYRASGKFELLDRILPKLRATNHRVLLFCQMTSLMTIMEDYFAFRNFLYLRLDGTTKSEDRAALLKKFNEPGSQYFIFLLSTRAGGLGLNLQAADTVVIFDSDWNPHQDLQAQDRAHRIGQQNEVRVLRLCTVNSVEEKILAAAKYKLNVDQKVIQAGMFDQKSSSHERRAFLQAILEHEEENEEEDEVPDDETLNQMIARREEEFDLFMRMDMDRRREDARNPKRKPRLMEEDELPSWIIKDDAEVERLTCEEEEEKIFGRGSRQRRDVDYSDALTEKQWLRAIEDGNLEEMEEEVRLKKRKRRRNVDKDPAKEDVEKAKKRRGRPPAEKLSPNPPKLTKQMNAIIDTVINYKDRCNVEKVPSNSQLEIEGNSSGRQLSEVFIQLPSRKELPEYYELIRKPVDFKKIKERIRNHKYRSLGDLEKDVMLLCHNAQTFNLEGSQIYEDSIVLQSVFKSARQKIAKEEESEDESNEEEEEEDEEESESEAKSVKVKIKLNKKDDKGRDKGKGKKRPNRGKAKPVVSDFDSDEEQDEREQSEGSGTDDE

| DC50 [1] [nM] | Dmax [1] [%] | DC50 [2] [nM] | Dmax [2] [%] | SMILES |
| --- | --- | --- | --- | --- |
| < 10 | > 90 | > 1000 | < 50 | COCCOCCOCCOC[C@H](NC(=O)[C@@H]1C[C@@H](O)CN1C(=O)[C@@H](n1cc([C@H]2CC[C@H](CN3CCC(c4ccc5c(c4)-n4c(nc(=O)c6c(Cl)cccc64)C5(C)C)CC3)CC2)nn1)C(C)(C)C)c1ccc(-c2scnc2C)cc1 [Compound A150, (2S,4R)-1-((S)-2-(4-((1r,4S)-4-((4-(4-chloro-7,7-dimethyl-5-oxo-5,7-dihydroindolo[1,2-a]quinazolin-10-yl)piperidin-1-yl)methyl)cyclohexyl)-1H-1,2,3-triazol-1-yl)-3,3-dimethylbutanoyl)-4-hydroxy-N—((R)-13-(4-(4-methylthiazol-5-yl)phenyl)-2,5,8,11-tetraoxatridecan-13-yl)pyrrolidine-2-carboxamide] |
| < 10 | > 90 | > 1000 | < 50 | COCCOCCOCCOCCOC[C@H](NC(=O)[C@@H]1C[C@@H](O)CN1C(=O)[C@@H](n1cc([C@H]2CC[C@H](CN3CCC(c4ccc5c(c4)-n4c(nc(=O)c6c(Cl)cccc64)C5(C)C)CC3)CC2)nn1)C(C)(C)C)c1ccc(-c2scnc2C)cc1 [Compound A151, (2S,4R)-1-((S)-2-(4-((1r,4S)-4-((4-(4-chloro-7,7-dimethyl-5-oxo-5,7-dihydroindolo[1,2-a]quinazolin-10-yl)piperidin-1-yl)methyl)cyclohexyl)-1H-1,2,3-triazol-1-yl)-3,3-dimethylbutanoyl)-4-hydroxy-N—((R)-16-(4-(4-methylthiazol-5-yl)phenyl)-2,5,8,11,14-pentaoxahexadecan-16-yl)pyrrolidine-2-carboxamide] |
| < 10 | > 90 | > 1000 | 50 to 69 | COC(=O)COC[C@H](NC(=O)[C@@H]1C[C@@H](O)CN1C(=O)[C@@H](n1cc([C@H]2CC[C@H](CN3CCC(c4ccc5c(c4)-n4c(nc(=O)c6c(Cl)cccc64)C54CCCCC4)CC3)CC2)nn1)C(C)(C)C)c1ccc(-c2scnc2C)cc1 [Compound A152, methyl 2-((R)-2-((2S,4R)-1-((S)-2-(4-((1r,4S)-4-((4-(4′-chloro-5′-oxo-5′H-spiro[cyclohexane-1,7′-indolo[1,2-a]quinazolin]-10′-yl)piperidin-1-yl)methyl)cyclohexyl)-1H-1,2,3-triazol-1-yl)-3,3-dimethylbutanoyl)-4-hydroxypyrrolidine-2-carboxamido)-2-(4-(4-methylthiazol-5-yl)phenyl)ethoxy)acetate] |
| < 10 | > 90 | > 1000 | < 50 | COC(=O)C1CN(C[C@H](NC(=O)[C@@H]2C[C@@H](O)CN2C(=O)[C@@H](n2cc([C@H]3CC[C@H](CN4CCC(c5ccc6c(c5)-n5c(nc(=O)c7c(Cl)cccc75)C65CCCCC5)CC4)CC3)nn2)C(C)(C)C)c2ccc(-c3scnc3C)cc2)C1 [Compound A154, methyl 1-((R)-2-((2S,4R)-1-((S)-2-(4-((1r,4S)-4-((4-(4′-chloro-5′-oxo-5′H-spiro[cyclohexane-1,7′-indolo[1,2-a]quinazolin]-10′-yl)piperidin-1-yl)methyl)cyclohexyl)-1H-1,2,3-triazol-1-yl)-3,3-dimethylbutanoyl)-4-hydroxypyrrolidine-2-carboxamido)-2-(4-(4-methylthiazol-5-yl)phenyl)ethyl) azetidine-3-carboxylate] |
| 100 to 1000 | 70 to 90 | > 1000 | < 50 | Cc1ncsc1-c1ccc([C@H](COCC(=O)O)NC(=O)[C@@H]2C[C@@H](O)CN2C(=O)[C@@H](n2cc([C@H]3CC[C@H](CN4CCC(c5ccc6c(c5)-n5c(nc(=O)c7c(Cl)cccc75)C65CCCCC5)CC4)CC3)nn2)C(C)(C)C)cc1 [Compound A155, 2-((R)-2-((2S,4R)-1-((S)-2-(4-((1r,4S)-4-((4-(4′-chloro-5′-oxo-5′H-spiro[cyclohexane-1,7′-indolo[1,2-a]quinazolin]-10′-yl)piperidin-1-yl)methyl)cyclohexyl)-1H-1,2,3-triazol-1-yl)-3,3-dimethylbutanoyl)-4-hydroxypyrrolidine-2-carboxamido)-2-(4-(4-methylthiazol-5-yl)phenyl)ethoxy) acetic acid] |
| < 10 | > 90 | > 1000 | 50 to 69 | Cc1ncsc1-c1ccc([C@H](CN2CCOCC2)NC(=O)[C@@H]2C[C@@H](O)CN2C(=O)[C@@H](n2cc([C@H]3CC[C@H](CN4CCC(c5ccc6c(c5)-n5c(nc(=O)c7c(Cl)cccc75)C6(C)C)CC4)CC3)nn2)C(C)(C)O)cc1 [Compound A159, (2S,4R)-1-((S)-2-(4-((1r,4S)-4-((4-(4-chloro-7,7-dimethyl-5-oxo-5,7-dihydroindolo[1,2-a]quinazolin-10-yl)piperidin-1-yl)methyl)cyclohexyl)-1H-1,2,3-triazol-1-yl)-3-hydroxy-3-methylbutanoyl)-4-hydroxy-N-((R)-1-(4-(4-methylthiazol-5-yl)phenyl)-2-morpholinoethyl)pyrrolidine-2-carboxamide] |

Second part, the compound before the results:

| SMILES | DC50 [1] [nM] | Dmax [1] [%] | DC50 [2] [nM] | Dmax [2] [%] |
| --- | --- | --- | --- | --- |
| COC(=O)C1CCN(C[C@H](NC(=O)[C@@H]2C[C@@H](O)CN2C(=O)[C@@H](n2cc([C@H]3CC[C@H](CN4CCC(c5ccc6c(c5)-n5c(nc(=O)c7c(Cl)cccc75)C65CCCCC5)CC4)CC3)nn2)C(C)(C)C)c2ccc(-c3scnc3C)cc2)CC1 [Compound A153, methyl 1-((R)-2-((2S,4R)-1-((S)-2-(4-((1r,4S)-4-((4-(4′-chloro-5′-oxo-5′H-spiro[cyclohexane-1,7′-indolo[1,2-a]quinazolin]-10′-yl)piperidin-1-yl)methyl)cyclohexyl)-1H-1,2,3-triazol-1-yl)-3,3-dimethylbutanoyl)-4-hydroxypyrrolidine-2-carboxamido)-2-(4-(4-methylthiazol-5-yl)phenyl)ethyl)piperidine-4-carboxylate] | < 10 | > 90 | > 1000 | 50 to 69 |
| Cc1ncsc1-c1ccc([C@H](CN2CCC(C(=O)O)CC2)NC(=O)[C@@H]2C[C@@H](O)CN2C(=O)[C@@H](n2cc([C@H]3CC[C@H](CN4CCC(c5ccc6c(c5)-n5c(nc(=O)c7c(Cl)cccc75)C65CCCCC5)CC4)CC3)nn2)C(C)(C)C)cc1 [Compound A156, 1-((R)-2-((2S,4R)-1-((S)-2-(4-((1r,4S)-4-((4-(4′-chloro-5′-oxo-5′H-spiro[cyclohexane-1,7′-indolo[1,2-a]quinazolin]-10′-yl)piperidin-1-yl)methyl)cyclohexyl)-1H-1,2,3-triazol-1-yl)-3,3-dimethylbutanoyl)-4-hydroxypyrrolidine-2-carboxamido)-2-(4-(4-methylthiazol-5-yl)phenyl)ethyl)piperidine-4-carboxylic acid] | 100 to 1000 | 70 to 90 | > 1000 | < 50 |
| Cc1ncsc1-c1ccc([C@H](CN2CC(C(=O)O)C2)NC(=O)[C@@H]2C[C@@H](O)CN2C(=O)[C@@H](n2cc([C@H]3CC[C@H](CN4CCC(c5ccc6c(c5)-n5c(nc(=O)c7c(Cl)cccc75)C65CCCCC5)CC4)CC3)nn2)C(C)(C)C)cc1 [Compound A157, 1-((R)-2-((2S,4R)-1-((S)-2-(4-((1r,4S)-4-((4-(4′-chloro-5′-oxo-5′H-spiro[cyclohexane-1,7′-indolo[1,2-a]quinazolin]-10′-yl)piperidin-1-yl)methyl)cyclohexyl)-1H-1,2,3-triazol-1-yl)-3,3-dimethylbutanoyl)-4-hydroxypyrrolidine-2-carboxamido)-2-(4-(4-methylthiazol-5-yl)phenyl)ethyl) azetidine-3-carboxylic acid] | 100 to 1000 | 70 to 90 | > 1000 | < 50 |
| Cc1ncsc1-c1ccc([C@H](CN2CCOCC2)NC(=O)[C@@H]2C[C@@H](O)CN2C(=O)[C@@H](n2cc([C@H]3CC[C@H](CN4CCC(c5ccc6c(c5)-n5c(nc(=O)c7c(Cl)cccc75)C65CCCCC5)CC4)CC3)nn2)C(C)(C)O)cc1 [Compound A158, (2S,4R)-1-((S)-2-(4-((1r,4S)-4-((4-(4′-chloro-5′-oxo-5′H-spiro[cyclohexane-1,7′-indolo[1,2-a]quinazolin]-10′-yl)piperidin-1-yl)methyl)cyclohexyl)-1H-1,2,3-triazol-1-yl)-3-hydroxy-3-methylbutanoyl)-4-hydroxy-N-((R)-1-(4-(4-methylthiazol-5-yl)phenyl)-2-morpholinoethyl)pyrrolidine-2-carboxamide] | < 10 | > 90 | > 1000 | 50 to 69 |

Reference: patent US20260092071A1, “COMPOUNDS AND COMPOSITIONS AS SMARCA2/4 DEGRADERS AND USES THEREOF” (REGENTS OF THE UNIVERSITY OF MICHIGAN, priority 2022, published 2026)
